According to patent US20230357354A1, “CD38-BINDING CD31 PEPTIDES AND USES THEREOF” (ENCEFA, priority 2020, published 2023):
Like-named read-outs stand apart in the source and are kept apart here. Bridge positions count the residues as written; N and C are the ends. Ends that are not written are not given here. Peptide text beside a SMILES is read from it.

Columns and labels:
[1] = tested on: human Daudi cells; type: cell-based
[2] = tested on: dopaminergic (TH^+) neurons in midbrain cultures; assay: MPP+ intoxication model: DA (TH+) cell survival in midbrain cultures; type: cell-based, Wistar rat; settings: MPP^+ in vitro model; antibodies 1 µg/mL, genistein 10 nM, vacuolin-1 10 µM, endosidin2 40 µM
Experimental: Animals were treated in accordance with the Guide for the Care and Use of Laboratory Animals (National Research Council, 1996), European Directive 86/609, and the guidelines of the local institutional animal care and use committee. Cultures were prepared from the ventral mesencephalon of gestational age 15.5 Wistar rat embryos (Janvier Breeding Center, Le Genest St Isle, France). Dissociated cells in suspension obtained by mechanical trituration of midbrain tissue pieces were seeded at a density of 1.2-1.5×10^5 cells/cm^2 onto tissue culture supports precoated with 1 mg/mL polyethylenimine diluted in borate buffer pH 8.3 as described (Michel et al., 1997. J Neurochem. 69(4):1499-507). The cultures were then maintained in N5 medium supplemented with 5 mM glucose, 5 % horse serum, and 0.5 % fetal calf serum, except for the first 3 DIV, when the concentration of fetal calf serum was 2.5% to favor initial maturation of the cultures (Guerreiro et al., 2008. Mol Pharmacol. 74(4):980-9). They were fed daily by replacing 70% of the medium. Routinely, mesencephalic cultures were established on Nunc 24-well culture plates (Thermofischer Scientific, Rochester, NY). Note that these cultures contain tyrosine hydroxylase (TH)^+ neurons that were exclusively dopaminergic (Traver et al., 2006. Mol Pharmacol. 70(1):30-40). TH^+ neurons represented approximately 1-2% of the total number of neuronal cells present in these cultures. The evaluation of the survival of DA neurons was performed by counting cells immunopositive for TH as described (Toulorge et al., 2011. Faseb J. 25(8):2563-73).
Treatments with MPP^+ were performed in cultures where the spontaneous death process was prevented by long-term exposure to depolarizing concentrations of K^+ (30 mM), in the presence of the glutamate receptor antagonist MK801 (5 µM) to prevent unwanted excitotoxic insults as described previously (Douhou et al., 2001. J Neurochem. 78(1):163-74). Treatments with MPP^+ and potential neuroprotective molecules were carried out between 5 and 7 DIV.
The cultures were fixed for 12 min using 4 % formaldehyde in Dulbecco’s phosphate-buffered saline (PBS), then washed twice with PBS before an incubation step at 4° C. for 24 hours with the following antibodies. A monoclonal anti-TH antibody diluted 1/5000 (ImmunoStar, Inc., Hudson, WI) was used to assess the survival of DA neurons. Antibody was diluted in PBS containing 0.2 % Triton X-100. Detection of the primary antibodies was performed with an Alexa Fluor-488 conjugate of an anti-mouse IgG antibody.
For this purpose, spontaneously occurring DA cell death was prevented by a treatment combining depolarizing concentrations of K^+ (30 mM) and MK801 (5 µM), a glutamate receptor antagonist used to prevent unwanted excitotoxic insult. The cultures were then exposed to 3 µM MPP^+ between 5 and 7 days in vitro (DIV) to achieve a loss of approximately 50% of DA neurons.

[3] = tested on: 6-OHDA mouse model; assay: 6-OHDA mouse model, number of DA (TH+) neurons in the substantia nigra pars compacta; type: in vivo, mice; settings: 15 mg/kg iv one day before 6-OHDA icv injection
Experimental: Animals were treated in accordance with the Guide for the Care and Use of Laboratory Animals (National Research Council, 1996), with the European Directive 2010/63/EU, and the guidelines of the local institutional animal care and use committee. For all studies, 8 to 10 weeks-old male C57B1/6 mice (Janvier, France) were used. They were maintained on a 12:12 hours light/dark cycle with lights on at 8 a.m. The room temperature was kept at 20° C., with free access to standard diet and tap water.
Two in vivo mouse models were used: the 6-OHDA mouse model and the MPTP mouse model. For the 6-OHDA mouse model, the intoxication protocol was based on the unilateral stereotaxic intrastriatal injection of 6-OHDA in the right striatum. Intracerebral or intravenous injections of treatments were made either the day before the surgical stereotaxic procedure, concomitantly with 6-OHDA during the surgical stereotaxic procedure, or two days after 6-OHDA injection. Animals were sacrificed 8 days after the surgical stereotaxic procedure.
For unilateral 6-OHDA mouse model, animals were anesthetized using Chloral hydrate (400 mg/kg, i.p.) and placed into a stereotactic frame adapted to mice. The injection was performed using a Hamilton syringe at the following coordinates: AP: + […] (corresponding to the atlas of Franklin and Paxinos, 1997). […]

[4] = tested on: DSS mouse model; assay: DSS-induced colitis mouse model, colon length; type: in vivo, mice
Experimental: (§1) Experimental colitis was induced in mice by giving drinking water ad libitum containing 3 % (w/v) DSS for 5 days, while control mice received tap water only. Test compounds were intravenously administered (15 mg/kg) when DSS treatment began. Mice were sacrificed 9 days after the beginning of DSS treatment.
Administration of DSS causes human ulcerative colitis-like pathologies due to its toxicity to colonic epithelial cells, which results in compromised mucosal barrier function. Clinical observations similar to human pathologies, such as weight loss, diarrhea and occult blood in stool, are commonly observed in the DSS model. Moreover, diminution of the colon’s length is characteristic of this model.
as §1, with “3%” for “3 %”, “compounds (SEQ ID NO: 6 and SEQ ID NO: 10)” for “compounds”, “subcutaneously” for “intravenously”, “everyday (300 µg/kg) starting” for “(15 mg/kg)”

[5] = tested on: human Daudi cells; type: cell-based; settings: glucose-deprived cells, 1 hour treatment (1 µM per figure legends; 10 µg/mL per method), 2-NBDG 500 µM 30 minutes
Experimental: Human Daudi cells cultured in 75 cm^2 flask were centrifuged ( 300 g, 3 minutes), resuspended in warmed PBS supplemented with 10 % goat serum and seeded in 96-well microplate ( 100 µL, 2 × 10^6 cells/mL) in order to deprive cells from glucose. Cells were treated with test treatments (10 µg/mL) for 1 hour (37° C.). Cells were then incubated with 500 µM of the fluorescent and non-metabolizable glucose analog 2-NBDG ((2R,3R,4S,5R)-3,4,5,6-tetrahydroxy-2-[(7-nitro-2,1,3-benzoxadiazol-4-yl)amino]hexanal; Thermo Fischer) for 30 minutes at 37° C., and washed 4 times with PBS containing 10 % of goat serum. Images were acquired using a Zeiss microscope (20 X) and the relative fluorescence intensity of 30 cells was determined using Fiji.
To determine the effect of test compounds on glucose uptake, we developed a cellular model based on the use of human Daudi cells, a cell line known to strongly express CD38.
Human Daudi cells were plated in culture medium deprived of glucose and exposed to test treatments (peptides of Table 6) for 1 hour and then incubated with the non-metabolizable, fluorescent glucose 2-NBDG. After 30 minutes of incubation, cells were washed and imaged using a microscope. Fluorescence levels were determined using Fiji.

## CC[C@H](C)[C@@H]1NC(=O)[C@H](C(C)C)NC(=O)[C@H](Cc2ccccc2)NC(=O)[C@H](CC(N)=O)NC(=O)[C@H](CCC(N)=O)NC(=O)[C@H](CC(=O)O)NC(=O)[C@H](CCCNC(=N)N)NC(=O)[C@@H](N)CSSC[C@@H](C(=O)O)NC(=O)[C@H](CCC(N)=O)NC(=O)[C@H](CCC(=O)O)NC(=O)[C@H](CCC(=O)O)NC(=O)[C@H](C(C)C)NC(=O)[C@@H]2CCCN2C(=O)[C@H](Cc2ccccc2)NC(=O)[C@H](CCC(=O)O)NC(=O)[C@H](CC(C)C)NC1=O [SEQ ID NO: 9] (H-CRDQNFVILEFPVEEQC-OH; disulfide 1-17 (inferred); N-terminus and C-terminus assumed)
[1]; 1 h
  EC50: ~0.1 nM

## COc1cc(/C=N/NC(=O)c2cccc(F)c2)cc(I)c1O [endosidin2]
[2]
  effect on the neuroprotective effect of agonistic anti-CD38 antibody clone HB7 (1 µg/mL): antagonized
  effect on the neuroprotective effect of sCD31 (1 µg/mL): antagonized

## O=c1c(-c2ccc(O)cc2)coc2cc(O)cc(O)c12 [genistein]
[2]
  effect on the neuroprotective effect of agonistic anti-CD38 antibody clone HB7 (1 µg/mL): antagonized
  effect on the neuroprotective effect of sCD31 (1 µg/mL): antagonized

## Ic1cccc(/C=N/Nc2nc(N3CCOCC3)nc(N(c3ccccc3)c3ccccc3)n2)c1 [vacuolin-1]
[2]
  effect on the neuroprotective effect of agonistic anti-CD38 antibody clone HB7 (1 µg/mL): antagonized
  effect on the neuroprotective effect of sCD31 (1 µg/mL): antagonized

## Daratumumab
[3]
  neuroprotective effect on DA neurons: failed to demonstrate neuroprotective activity

## NSRDQNFVILEFPVE [SEQ ID NO: 6]
[4]; 300 µg/kg s.c. daily from start of DSS, 3% DSS 5 days, sacrifice day 9
  colon length: statistically significant improvement in colon length
[4]; same dosing regimen, 300 µg/kg s.c. daily
  potency on colon length compared with SEQ ID NO: 10: less potent than SEQ ID NO: 10
[1]; 1 h
  EC50: ~13 nM

## human sCD31: soluble form of human CD31, amino acid residues 35 to 493 of SEQ ID NO: 1
[5]
  glucose uptake (2-NBDG fluorescence): increased glucose uptake to similar levels to that observed in the presence of insulin
[1]; dose response, 2-NBDG fluorescence, read-out: EC50 on glucose uptake
  EC50: ~5 nM
